Three compounds from PubChem BioAssay (NCI) can be followed below.

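96-well plates; 48 h exposure; 5 concentrations. Endpoints by linear interpolation between flanking doses. Not reached: highest tested concentration assigned. At the GI50, growth is halved. TGI: total growth inhibition.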

Among the test systems are SK-MEL-28 melanoma; NCI-H460 lung; RPMI-8226 leukemia; SNB-19 CNS; T-47D breast; SNB-75 CNS; RXF 393 renal; UO-31 renal; HOP-92 NSCLC; MALME-3M melanoma.
Holding throughout (test): growth of human tumour cells (NCI), 48 h

Take `CSC(=S)N/N=C/c1ccccc1`: the TGI in the test on SK-MEL-28 melanoma was greater than 100 µM; in the test with NCI-H460 lung it was greater than 100 µM; in the test on RPMI-8226 leukemia, greater than 100 µM; with SNB-19 CNS, greater than 100 µM; with T-47D breast it was 72.1 µM; in the test on SNB-75 CNS, greater than 100 µM. Further, the TGI in the test on RXF 393 renal is 76.9 µM; in the test with UO-31 renal it was greater than 100 µM; in the test on HOP-92 NSCLC it was greater than 100 µM; in the test with MALME-3M melanoma, greater than 100 µM.

Consider `O=C(CCCCCCC(=O)N/N=C/c1ccc(N(c2ccccc2)c2ccccc2)cc1)NO`, for which the GI50 is 3.06 µM in the test on SK-MEL-28 melanoma; 1.54 µM in the test on NCI-H460 lung; 1.88 µM with RPMI-8226 leukemia; 3.35 µM with SNB-19 CNS; 0.309 µM in the test with T-47D breast; 2.04 µM in the test with SNB-75 CNS. The GI50 with RXF 393 renal is 2.27 µM; in the test on UO-31 renal, 1.44 µM; in the test with HOP-92 NSCLC, 1.67 µM; in the test with MALME-3M melanoma it was 3.25 µM. The TGI was found to be 11.6 µM in the test on SK-MEL-28 melanoma; 8.58 µM in the test on NCI-H460 lung; 14 µM in the test on RPMI-8226 leukemia; 15.9 µM in the test on SNB-19 CNS; 2.41 µM in the test on T-47D breast; 14.2 µM in the test with SNB-75 CNS. Besides, the TGI in the test with RXF 393 renal came out at 7.06 µM; in the test with UO-31 renal, 4.4 µM; in the test with HOP-92 NSCLC it was 4.25 µM; in the test with MALME-3M melanoma, 15 µM.

Take `O=C(/C=C/C=C/c1ccccc1)c1ccc(Nc2nc(Nc3ccccc3)nc(Nc3ccccc3)n2)cc1`: the GI50 in the test with SK-MEL-28 melanoma was 46.9 µM; in the test with NCI-H460 lung it was 42.8 µM; in the test on RPMI-8226 leukemia, 4.12 µM; in the test with SNB-19 CNS, greater than 100 µM; in the test on T-47D breast, 4.58 µM; in the test on SNB-75 CNS it was 17.8 µM. Besides, the GI50 in the test on RXF 393 renal is 1.62 µM; in the test on UO-31 renal, 13.3 µM; with HOP-92 NSCLC, 0.241 µM; with MALME-3M melanoma, greater than 100 µM. In addition, the TGI with SK-MEL-28 melanoma, in the test on NCI-H460 lung, with RPMI-8226 leukemia, in the test on SNB-19 CNS, in the test on T-47D breast and in the test on SNB-75 CNS was greater than 100 µM each time. Moreover, the TGI was 47.5 µM in the test on RXF 393 renal, greater than 100 µM in the test on UO-31 renal, 17.7 µM in the test with HOP-92 NSCLC and greater than 100 µM in the test on MALME-3M melanoma.
